Measured values published in paper PMC5000727, “Molecular Insights into the Potential Toxicological Interaction of 2-Mercaptothiazoline with the Antioxidant Enzyme—Catalase” (International Journal of Molecular Sciences, 2016).

Target: T1, catalase (CAT), from bovine liver (Bos taurus, UniProt P00432)
T1 construct: native enzyme from bovine liver, commercial (Sigma), EC 1.11.1.6; homotetramer; PDB 1TGU printed only as docking model
T1 sequence (P00432 2-527): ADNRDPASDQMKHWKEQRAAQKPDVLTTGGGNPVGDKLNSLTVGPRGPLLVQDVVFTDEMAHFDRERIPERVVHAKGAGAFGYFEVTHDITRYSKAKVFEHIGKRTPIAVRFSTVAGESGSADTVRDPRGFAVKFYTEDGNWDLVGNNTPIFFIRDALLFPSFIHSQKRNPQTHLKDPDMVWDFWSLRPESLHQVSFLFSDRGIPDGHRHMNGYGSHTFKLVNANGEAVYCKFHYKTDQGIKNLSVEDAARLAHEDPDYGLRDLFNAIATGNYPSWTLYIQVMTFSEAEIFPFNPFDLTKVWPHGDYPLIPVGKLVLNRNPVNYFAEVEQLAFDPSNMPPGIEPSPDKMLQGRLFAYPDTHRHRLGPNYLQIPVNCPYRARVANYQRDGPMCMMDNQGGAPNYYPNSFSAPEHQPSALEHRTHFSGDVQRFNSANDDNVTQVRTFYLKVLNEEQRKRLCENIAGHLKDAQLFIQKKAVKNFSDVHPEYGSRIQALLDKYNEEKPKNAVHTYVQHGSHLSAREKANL
Experiment: intrinsic fluorescence quenching (ex […] nm)
Format: binding
Conditions: double-log; pH 7.4, 291 K, phosphate buffer; n = 1.14; unit printed mol·L^−1 but must be L·mol^−1 (printed ΔG° agrees); also measured at 300, 309, 318 K

`S=C1NCCS1` [2-mercaptothiazoline, 1,3-thiazolidine-2-thione] was tested, and the “Ka (× 10^4 mol.L^-1)” value was 2.97 × 10^4 mol·L^−1.
